# From article PMC11550998, “Novel 5-HT7 receptor antagonists modulate intestinal immune responses and reduce severity of colitis” (American Journal of Physiology - Gastrointestinal and Liver …, 2024)
# Columns and labels:
# [1] = Plasma protein binding by equilibrium dialysis; format: in vitro ADME; conditions: mouse
# Description: Plasma protein binding was performed by using equilibrium dialysis (ED) ([17]). ED was performed using a 96-well equilibrium dialyzer with a molecular weight (MW) cutoff of 5 K (Harvard Apparatus, Holliston, MA) and placed in a dual-plate rotator set to maximum speed (Harvard Apparatus, Holliston, MA) located in a 37°C incubator with a 10% CO2 environment. After 22 h of dialysis, buffer and plasma were removed from each side of the dialysis plate. Samples were mixed with equal volumes of the opposite matrix (plasma or buffer) and stored at −20°C for future analyte quantitation.
# Plasma concentrations were determined using an LC-MS/MS method. Briefly, 100-µL acetonitrile with an internal standard solution (Diltiazem, 0.1 μg/mL) was added to 50-µL plasma or tissue homogenate. After being vortexed for 1 min, the mixture was centrifuged at 3,000 g for 5 min. LC-MS/MS analysis was carried out using a high-performance liquid chromatography system consisting of an Agilent 1100 system interfaced to an API4000 SCIEX triple-quadrupole tandem mass spectrometer (Applied Biosystems/MDS Sciex, Foster City, CA). […] The detection and quantification of analytes were performed with the m/z transition 347/191 for MC-170073, MC-230078, and MC-230079, and m/z 415/178 for diltiazem.
# [2] = system: chronic DSS-induced colitis; assay: Chronic DSS-induced colitis model (three cycles of DSS); format: in vivo, C57BL/6 mice; conditions: 10 mg/kg ip during last cycle
# Text: C57BL/6 (Taconic, Cambridge City, IN) for the DSS model of colitis, as well as C57BL/6 and Rag1^−/− mice (Jackson Laboratory, Bar Harbor, ME) for the T-cell transfer model, were kept in sterilized, filter-topped cages under specific pathogen-free conditions upon arrival and fed autoclaved food. Male mice aged 8–10 wk were used for all experiments. Mice were acclimatized for 7 days before the start of any experiments. All experiments were approved by the animal ethics committee of McMaster University and conducted under Canadian guidelines for animal research.
# For induction of acute colitis, DSS (molecular mass 40 kDa; ICN; Biomedicals Incorporate, Solon, OH) was added to autoclaved drinking water at a final concentration of 4 or 5% wt/vol for 5 days. For the induction of chronic colitis, DSS was added to normal drinking water at a final concentration of 4% for 5 days, followed by 7 days of water. This cycle was repeated twice thereafter, with 2% DSS. Control mice received vehicle or normal drinking water.
# For acute DSS-induced colitis, C576BL/6 mice were treated with MC-170073 (10 mg/kg of body wt) or vehicle (10% DMSO in normal saline) via intraperitoneal injection once daily for 6 days, starting 1 day before the beginning of DSS. In a separate experiment, C57BL/6 mice were orally administered with MC-230078 (10 mg/kg) or vehicle twice daily for 5 days, starting from the beginning of DSS. […]
# Disease activity index (DAI) is a combined score of weight loss, stool consistency, and fecal bleeding and was blindly assessed using a previously published scoring system ([19]). […] DAI was measured across all days of DSS treatment. Macroscopic damage scores were blindly scored using a previously published scoring system for DSS-induced colitis ([19]).
# Colonic myeloperoxidase (MPO) levels were measured following a published protocol ([19]). […] The absorbance was measured at 450 nm by a spectrophotometer (model EL808, BioTek). MPO level was expressed in units per milligram of tissue, where 1 U is defined as the quantity of enzyme able to convert 1 μmol hydrogen peroxide to water per minute at room temperature.
# Segments of the proximal colon were washed with PBS, fixed in 10% neutral-buffered formalin, washed with ethanol, and embedded in paraffin. Hematoxylin-eosin (H&E)-stained colonic tissue sections were scored using a previously published system ([19]): crypt architecture (normal = 0; severe crypt distortion with loss of entire crypts = 3), degree of inflammatory cell infiltration (normal = 0; dense inflammatory infiltrate = 3), muscle thickening (base of crypt sits on the muscularis mucosae = 0; marked muscle thickening present = 3), goblet cell depletion (absent = 0; present = 1), and crypt abscess (absent = 0; present = 1). […]
compound,measurement,setting,value
CCC1(CC)CC(CCN2CCN(c3ccc(O)cc3)CC2)OC1=O (centres unmarked) [MC-170073],fraction unbound at 22 h,[1],0.6
same,colonic IL-1β level,[2],lower levels
same,colonic MPO level,[2],lower levels
same,histological score,[2],downregulation
same,macroscopic score,[2],downregulation
